Measurements reported in patent EP1322622B1, “NEW N, N'-DISUBSTITUTED BENZIMIDAZOLONE DERIVATIVES WITH AFFINITY AT THE SEROTONIN AND DOPAMINE RECEPTORS” (Sprout Pharmaceuticals, Inc., priority 2000, dated 2002).

Biological target: T1, CHO/5-HT1A cells (Homo sapiens, UniProt P08908)
T1 construct: expressed in transfected cells; host or cells: CHO/5-HT1A cells
T1 sequence (P08908 1-422): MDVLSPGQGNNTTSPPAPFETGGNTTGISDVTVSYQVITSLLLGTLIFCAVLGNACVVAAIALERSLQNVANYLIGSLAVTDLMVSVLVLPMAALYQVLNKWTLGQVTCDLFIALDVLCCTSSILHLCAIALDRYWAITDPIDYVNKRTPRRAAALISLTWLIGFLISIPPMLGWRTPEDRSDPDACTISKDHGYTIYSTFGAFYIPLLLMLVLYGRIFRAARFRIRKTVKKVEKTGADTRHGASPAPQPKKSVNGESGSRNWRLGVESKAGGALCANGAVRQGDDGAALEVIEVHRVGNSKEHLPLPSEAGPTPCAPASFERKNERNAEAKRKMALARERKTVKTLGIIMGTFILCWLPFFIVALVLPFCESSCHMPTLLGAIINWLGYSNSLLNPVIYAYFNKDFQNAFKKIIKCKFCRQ
Assay: 5-HT1A Functional assay (cAMP)
Assay type: cell-based
Conditions: 10 µM compound; % inhibition of the cAMP accumulation induced by 10 µM FSK
Protocol: CHO/5-HT1A cells were random seeded at a density of about 200,000/well in 24 well plates the day prior to the experiment. On the day of the experiment, cells were pretreated for 15 min at 37 °C with 500 µM isobuthylmethylxantine (IBMX) dissolved in culture medium without serum. Wells were then divided in different groups in duplicate as follows: control, 10 µM FSK, 10 µM FSK + 1 µM 5-HT as positive standard and 10 µM FSK + 10 µM of the different compound under evaluation. Sample solutions were added and incubated for additional 15 min at 37 °C. After incubation, medium was aspirated and the reaction stopped by adding 200 µl of lysis buffer. Plates were shaken for 5 min, then the lysate was removed and samples were stored at 4 °C until the day of the assay. For the cAMP evaluation, samples were properly diluted and the cAMP content was measured by an enzymeimmunoassay system.

For CS(=O)(=O)NCCn1c(=O)n(CC=CCN2CCN(c3cccc(Cl)c3)CC2)c2ccccc21 [compound 521], the “5-HT1A cAMP % inhib.” value was 67%.

Same assay, conditions: 10 µM compound; % inhibition of the cAMP accumulation induced by 10 µM FSK; read-out: 5-HT1A cAMP % inhib.

Point of comparison: Cc1cccc(N2CCN(CC=CCn3c(=O)n(CCNS(C)(=O)=O)c4ccccc43)CC2)c1 [compound 514], inhibition at 10 µM 67%. Against it:
- CCNC(=O)OCCn1c(=O)n(CCN2CCN(c3cccc(Cl)c3)CC2)c2ccccc21 [compound 202] — higher, 72%
- CCNC(=O)OCCn1c(=O)n(CCN2CCN(c3cccc(C)c3)CC2)c2ccccc21 [compound 217] — higher, 68%
- O=c1n(C/C=C/CN2CCN(c3ccccn3)CC2)c2ccccc2n1CCN1CCOCC1 [compound 347] — lower, 65%
- O=c1n(C/C=C/CN2CCN(c3cccc(C(F)(F)F)c3)CC2)c2ccccc2n1CCN1CCOCC1 [compound 352] — higher, 79%
- O=c1n(C/C=C\CN2CCN(c3cccc(Cl)c3)CC2)c2ccccc2n1CCO [compound 365] — higher, 82%
- O=c1n(C/C=C/CN2CCN(c3ccccn3)CC2)c2ccccc2n1CCO [compound 381] — higher, 79%
- CCNC(=O)OCCn1c(=O)n(CC=CCN2CCN(c3cccc(C(F)(F)F)c3)CC2)c2ccccc21 [compound 403] — higher, 84%
- CCNC(=O)OCCn1c(=O)n(C/C=C/CN2CCN(c3ccccn3)CC2)c2ccccc21 [compound 415] — higher, 82%
- CC(=O)NCCn1c(=O)n(C/C=C\CN2CCN(c3cccc(C(F)(F)F)c3)CC2)c2ccccc21 [compound 459] — higher, 86%
- CC(=O)NCCn1c(=O)n(C/C=C\CN2CCN(c3cccc(C)c3C)CC2)c2ccccc21 [compound 468] — lower, 66%
- CC(=O)NCCn1c(=O)n(C/C=C\CN2CCN(c3ccccc3Cl)CC2)c2ccccc21 [compound 472] — the same, 67%
- CS(=O)(=O)NCCn1c(=O)n(CC=CCN2CCN(c3cccc(Cl)c3)CC2)c2ccccc21 [compound 499] — higher, 74%
- CS(=O)(=O)NCCn1c(=O)n(C/C=C\CN2CCN(c3cccc(C(F)(F)F)c3)CC2)c2ccccc21 [compound 503] — higher, 87%
- Cc1cccc(N2CCN(C/C=C\Cn3c(=O)n(CCNS(C)(=O)=O)c4ccccc43)CC2)c1C [compound 512] — higher, 68%
- CS(=O)(=O)NCCn1c(=O)n(C/C=C/CN2CCN(c3ccccn3)CC2)c2ccccc21 [compound 520] — higher, 70%
- Cc1cccc(N2CCN(C/C=C/Cn3c(=O)n(CCNS(C)(=O)=O)c4ccccc43)CC2)c1 [compound 536] — lower, 55%

Biological target: T2, 5-HT1A human receptors (Homo sapiens, UniProt P08908)
T2 construct: expressed in transfected cells; host or cells: CHO cells
T2 sequence (P08908 1-422): T1 sequence (P08908 1-422)
Assay: 5-HT1A Radioligand Receptor Binding Assay ([3H]-8-OH-DPAT, CHO cell membranes)
Conditions: [3H]-8-OH-DPAT displacement, CHO membranes; read-out: 5-HT1A receptor binding IC50
Protocol: Membranes from CHO cells, expressing 5-HT1A human receptors were suspended in incubation buffer.
The compounds were tested in singlicate at one concentration (10^-7 M) in a total volume of 1000 µl. 980 µl of diluted membranes, 10 µl DMSO or unlabelled ligand and 10 µl of [^3H]-8-OH-DPAT (0.6-0.7 nM) were incubated for 60 min at 27 °C. The reaction was stopped by rapid filtration through Tomtec cell Harvester (48 wells) using Filtermat B (presoaked in 0.1% PEI) filters. […] Non specific binding was determined in the presence of 5-HT (10^-5 M).
The specific radioligand binding to the receptor was defined by the difference between total binding and non specific binding, determined in the presence of an excess of unlabelled ligand. Results were expressed as percentage of control specific binding obtained in the presence of the compounds.
The affinity values (IC50) for the compounds were obtained by a non linear least squares regression analysis on the basis of a one binding site model.

Point of comparison: CCNC(=O)OCCn1c(=O)n(CCN2CCN(c3cccc(C)c3)CC2)c2ccccc21 [compound 217], IC50 5.2 nM. Against it:
- CCNC(=O)OCCn1c(=O)n(CCN2CCN(c3cccc(Cl)c3)CC2)c2ccccc21 [compound 202] — 3.1-fold lower, 1.7 nM
- CC(=O)NCCn1c(=O)n(C/C=C\CN2CCN(c3cccc(C)c3C)CC2)c2ccccc21 [compound 468] — 1.7-fold lower, 3.1 nM
- Cc1cccc(N2CCN(C/C=C/Cn3c(=O)n(CCNS(C)(=O)=O)c4ccccc43)CC2)c1 [compound 536] — 1.8-fold higher, 9.5 nM

Same assay, conditions: compound at 10^-7 M, singlicate; [3H]-8-OH-DPAT 0.6-0.7 nM; read-out: 5-HT1A receptor binding assay % inhib. (10^-7 M)

Compound O=c1n(C/C=C\CN2CCN(c3cccc(Cl)c3)CC2)c2ccccc2n1CCO [compound 365] has an inhibition at 0.1 µM of 89%.
